Results published in patent publication US11725036B2, “Modified lipidated relaxin B chain peptides and their therapeutic use” (Sanofi, priority 2018, dated 2023).
Converted amounts (≈) assume the structure as drawn. Read-outs that look alike come from different tables or passages of the source. Starred links: 1 amine or outer side, 2 acyl side, 3 side chain; linkers in the order of their positions; H or OH if unused. Non-standard residues stand in square brackets, D forms with d. Residues, ends and D or L forms follow the SMILES beside them. Groups on a side chain read outwards from the residue. *: point of attachment. X5 = CCCCCCCCCCCCCCCC(=O)N[C@@H](CCC(=O)N[C@@H](CCC(=O)N[C@@H](CCC(=O)NCCCOCCOCCOCCCNC(=O)CCC(=O)NCCCOCCOCCOCCCNC(=O)CCC(=O)NCCCOCCOCCOCCCNC(=O)CCC(=O)NCCCOCCOCCOCCCN*)C(=O)O)C(=O)O)C(=O)O; X1 = CCCCCCCCCCCCCCCC(=O)N[C@@H](CCC(=O)N[C@@H](CCC(=O)N[C@@H](CCC(=O)NCCCOCCOCCOCCCNC(=O)CCC(=O)NCCCOCCOCCOCCCNC(=O)CCC(=O)NCCCOCCOCCOCCCN*)C(=O)O)C(=O)O)C(=O)O; X2 = CCCCCCCCCCCCCCCC(=O)N[C@@H](CCC(=O)N[C@@H](CCC(=O)N[C@@H](CCC(=O)NCCCOCCOCCOCCCNC(=O)CCC(=O)NCCCOCCOCCOCCCN*)C(=O)O)C(=O)O)C(=O)O; γGlu = O=C(O)[C@H](CCC(=O)[*:2])N[*:1]; Stearoyl = CCCCCCCCCCCCCCCCCC(=O)*; Suc = O=C(CCC(=O)[*:2])[*:1]; AEEA = NCCOCCOCC(=O)O; Aib = CC(C)(N)C(=O)O

Columns and labels:
RXFP1 = target: T1, RXFP1 (Homo sapiens, UniProt Q9HBX9); assay: OVCAR5 cAMP assay (HTRF); assay type: cell-based; conditions: for EC50: OVCAR 5 cells expressing endogenous RXFP1, cAMP readout; for Emax: OVCAR 5 cells, maximal cAMP relative to H2-relaxin
T1 construct: OVCAR5 cells expressing endogenous RXFP1; endogenous in cells; host or cells: OVCAR5
T1 sequence (Q9HBX9 1-757): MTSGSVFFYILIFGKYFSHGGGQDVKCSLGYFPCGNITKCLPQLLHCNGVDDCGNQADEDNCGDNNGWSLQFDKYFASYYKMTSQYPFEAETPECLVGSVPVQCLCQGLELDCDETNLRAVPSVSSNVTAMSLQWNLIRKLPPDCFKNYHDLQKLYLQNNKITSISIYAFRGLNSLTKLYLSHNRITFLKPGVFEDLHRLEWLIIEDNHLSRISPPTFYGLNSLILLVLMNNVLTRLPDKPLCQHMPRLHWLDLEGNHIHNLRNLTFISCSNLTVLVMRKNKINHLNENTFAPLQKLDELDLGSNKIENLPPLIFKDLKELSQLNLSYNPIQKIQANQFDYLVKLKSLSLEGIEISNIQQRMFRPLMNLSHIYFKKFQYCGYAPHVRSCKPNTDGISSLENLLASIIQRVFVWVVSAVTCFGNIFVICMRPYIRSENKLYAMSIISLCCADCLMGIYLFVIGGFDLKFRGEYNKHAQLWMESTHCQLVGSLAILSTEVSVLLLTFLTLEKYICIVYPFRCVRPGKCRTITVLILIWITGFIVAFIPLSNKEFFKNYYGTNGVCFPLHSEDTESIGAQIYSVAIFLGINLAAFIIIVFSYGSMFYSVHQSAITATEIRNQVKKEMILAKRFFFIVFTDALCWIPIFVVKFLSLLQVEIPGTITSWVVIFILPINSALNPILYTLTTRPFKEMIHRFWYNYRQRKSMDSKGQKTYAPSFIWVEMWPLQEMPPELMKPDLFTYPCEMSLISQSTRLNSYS
In short: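 Endogenous RXFP1 in OVCAR5 cells, pretreated 40 min at 37° C with 1 mM IBMX, then exposed to increasing peptide concentrations in serum-free medium for 30 min at 37° C. cAMP read by HTRF; EC50 by variable-slope sigmoidal fit, Emax as % of H2-relaxin maximal cAMP in same run.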

[1] = Solubility testing in buffer; assay type: physicochemical; conditions: target solubility 10.0 mg/ml
Procedure: Prior to the testing of solubility of a peptide batch, its purity (HPLC-UV) was determined.
Acetate Buffer 50 mM pH4.5: 0.75 g C2H3C02Na,3H2O (Sigma S7545)+0.35 ml CH3CO2H 100% solution dissolved in Millipore water, adjusted to pH with diluted (1:1) CH3CO2H and diluted to 250 ml with Millipore water.
In a 4 ml Ependorph vial, an accurately weighed sample of compound was diluted in study media to obtain target concentration of 2, 6 or 10 mg/ml of pure compound. The sample vials were shacked (rock 'roll shaker) for ˜19 h. 300 μL aliquots were filtered through a Millipore “Solvinert” plate (0.45 μm-PTFE hydrophilic).
pH was measured with a micro electrode
Waters Acquity UPLC System with DAD detector
Column: Waters Peptide Column CSH C18 (130 Å; 1.7 μm; 50*2.1 mm)
Column temperature: 60° C.
Full loop (about 5 μL)—overfill factor 5
Weak et Strong wash: H2O/ACN (75/25; V/V); Seal wash: H2O/IsOH (95/5; V/V). Mobile phase:
Solvent A: 0.05% TFA in H2O; Solvent B: 0.035% TFA in CH3CN
Gradient: from 0 to 12 min B=2% to 60%, from 12 to 14 min B=60% to 100%. Column washing 100% B 1 min, column equilibration 2% B 2.5 min.
UV detector: wavelength: 220 nm.

[2] = acetate buffer 50 mM pH 4.5, read-out: Solubility Acetate buffer pH 4.5
[3] = phosphate buffer 50 mM pH 7.4, read-out: Solubility phosphate buffer pH 7.4

EC50 (RXFP1)	Emax (RXFP1)	solubility [1, 2]	solubility [1, 3]	Structure (SMILES)
1.34 nM	94%	8240 µg/mL (≈ 1860 µM)	9680 µg/mL (≈ 2190 µM)	CCCCCCCCCCCCCCCC(=O)N[C@@H](CCC(=O)N[C@@H](CCC(=O)N[C@@H](CCC(=O)NCCCOCCOCCOCCCNC(=O)CCC(=O)NCCCOCCOCCOCCCNC(=O)CCC(=O)NCCCOCCOCCOCCCNC(=O)CCC(=O)NCCCC[C@H](NC(=O)CNC(=O)[C@H](CCC(=O)O)NC(=O)[C@@H](NC(=O)C(C)(C)NC(=O)[C@@H](NC(=O)[C@H](CCCCNC(C)=O)NC(=O)[C@H](C)NC(=O)[C@H](CCCNC(=N)N)NC(=O)[C@@H](NC(=O)[C@H](CCCCN)NC(=O)[C@H](CCC(=O)O)NC(=O)[C@H](CCCNC(=N)N)NC(=O)CNC(=O)[C@H](CCC(=O)O)NC(=O)[C@H](CC(C)C)NC(C)=O)C(C)C)[C@@H](C)CC)[C@@H](C)CC)C(=O)N[C@@H](CO)C(=O)N[C@H](C(=O)N[C@@H](Cc1c[nH]c2ccccc12)C(=O)N[C@@H](CO)C(=O)NC(C)(C)C(=O)N[C@@H](CCCNC(=N)N)C(=O)N[C@@H](CCCCN)C(=O)N[C@@H](CCCCNC(C)=O)C(N)=O)[C@@H](C)O)C(=O)O)C(=O)O)C(=O)O [compound 70] (Ac-LEGREKVRAK(Ac)I[Aib]IEGK([Suc-X1])STWS[Aib]RKK(Ac)-NH2)
1.54 nM	92%	6750 µg/mL (≈ 1630 µM)	6580 µg/mL (≈ 1590 µM)	CCCCCCCCCCCCCCCC(=O)N[C@@H](CCC(=O)N[C@@H](CCC(=O)N[C@@H](CCC(=O)NCCCOCCOCCOCCCNC(=O)CCC(=O)NCCCOCCOCCOCCCNC(=O)CCC(=O)NCCCC[C@H](NC(=O)CNC(=O)[C@H](CCC(=O)O)NC(=O)C(C)(C)NC(=O)C(C)(C)NC(=O)[C@@H](NC(=O)[C@H](CCCCNC(C)=O)NC(=O)[C@H](C)NC(=O)[C@H](CCCNC(=N)N)NC(=O)[C@@H](NC(=O)[C@H](CCCCN)NC(=O)[C@H](CCC(=O)O)NC(=O)[C@H](CCCNC(=N)N)NC(=O)CNC(=O)[C@H](CCC(=O)O)NC(=O)[C@H](CC(C)C)NC(C)=O)C(C)C)[C@@H](C)CC)C(=O)N[C@@H](CO)C(=O)N[C@H](C(=O)N[C@@H](Cc1c[nH]c2ccccc12)C(=O)N[C@@H](CO)C(=O)N[C@H](CCCCN)C(=O)N[C@@H](CCCNC(=N)N)C(=O)N[C@@H](CCCCN)C(=O)N[C@@H](CCCCNC(C)=O)C(N)=O)[C@@H](C)O)C(=O)O)C(=O)O)C(=O)O [compound 18] (Ac-LEGREKVRAK(Ac)I[Aib][Aib]EGK([Suc-X2])STWS[dK]RKK(Ac)-NH2)
4.6 nM	91%	9220 µg/mL (≈ 2260 µM)	6810 µg/mL (≈ 1670 µM)	CCCCCCCCCCCCCCCC(=O)N[C@@H](CCC(=O)N[C@@H](CCC(=O)N[C@@H](CCC(=O)NCCCOCCOCCOCCCNC(=O)CCC(=O)NCCCOCCOCCOCCCNC(=O)CCC(=O)NCCCC[C@H](NC(=O)CNC(=O)[C@H](CCC(=O)O)NC(=O)C(C)(C)NC(=O)C(C)(C)NC(=O)[C@@H](NC(=O)[C@H](CCCCNC(C)=O)NC(=O)[C@H](C)NC(=O)[C@H](CCCNC(=N)N)NC(=O)[C@@H](NC(=O)[C@H](CCCCN)NC(=O)[C@H](CCC(=O)O)NC(=O)[C@H](CCCNC(=N)N)NC(=O)CNC(=O)[C@H](CCC(=O)O)NC(=O)[C@H](CC(C)C)NC(C)=O)C(C)C)[C@@H](C)CC)C(=O)N[C@@H](CO)C(=O)N[C@H](C(=O)N[C@@H](Cc1c[nH]c2ccccc12)C(=O)N[C@@H](CO)C(=O)N[C@H](CCCCN)C(=O)N[C@@H](CCCNC(=N)N)C(=O)N[C@@H](C)C(=O)N[C@@H](CCCCNC(C)=O)C(N)=O)[C@@H](C)O)C(=O)O)C(=O)O)C(=O)O [compound 17] (Ac-LEGREKVRAK(Ac)I[Aib][Aib]EGK([Suc-X2])STWS[dK]RAK(Ac)-NH2)
0.65 nM	93%	6280 µg/mL (≈ 1530 µM)	6590 µg/mL (≈ 1610 µM)	CCCCCCCCCCCCCCCCCC(=O)N[C@@H](CCC(=O)N[C@@H](CCC(=O)N[C@@H](CCC(=O)NCCOCCOCC(=O)NCCOCCOCC(=O)NCCOCCOCC(=O)NCCOCCOCC(=O)NCCCC[C@H](NC(=O)CNC(=O)[C@H](CCC(=O)O)NC(=O)C(C)(C)NC(=O)C(C)(C)NC(=O)[C@@H](NC(=O)[C@H](CCCCNC(C)=O)NC(=O)[C@H](C)NC(=O)[C@H](CCCNC(=N)N)NC(=O)[C@@H](NC(=O)[C@H](CCCCN)NC(=O)[C@H](CCC(=O)O)NC(=O)[C@H](CCCNC(=N)N)NC(=O)CNC(=O)[C@H](CCC(=O)O)NC(=O)[C@H](CC(C)C)NC(C)=O)C(C)C)[C@@H](C)CC)C(=O)N[C@@H](CO)C(=O)N[C@H](C(=O)N[C@@H](Cc1c[nH]c2ccccc12)C(=O)N[C@@H](CO)C(=O)NC(C)(C)C(=O)N[C@@H](CCCNC(=N)N)C(=O)N[C@@H](CCCCN)C(=O)N[C@@H](CCCCNC(C)=O)C(N)=O)[C@@H](C)O)C(=O)O)C(=O)O)C(=O)O [compound 21] (Ac-LEGREKVRAK(Ac)I[Aib][Aib]EGK([AEEA-AEEA-AEEA-AEEA-γGlu-γGlu-γGlu-Stearoyl])STWS[Aib]RKK(Ac)-NH2)
0.54 nM	94%	7390 µg/mL (≈ 1560 µM)	8470 µg/mL (≈ 1790 µM)	CCCCCCCCCCCCCCCC(=O)N[C@@H](CCC(=O)N[C@@H](CCC(=O)N[C@@H](CCC(=O)NCCCOCCOCCOCCCNC(=O)CCC(=O)NCCCOCCOCCOCCCNC(=O)CCC(=O)NCCCOCCOCCOCCCNC(=O)CCC(=O)NCCCOCCOCCOCCCNC(=O)CCC(=O)NCCCC[C@H](NC(=O)CNC(=O)[C@H](CCC(=O)O)NC(=O)[C@@H](NC(=O)C(C)(C)NC(=O)[C@@H](NC(=O)[C@H](CCCCNC(C)=O)NC(=O)[C@H](C)NC(=O)[C@H](CCCNC(=N)N)NC(=O)[C@@H](NC(=O)[C@H](CCCCN)NC(=O)[C@H](CCC(=O)O)NC(=O)[C@H](CCCNC(=N)N)NC(=O)CNC(=O)[C@H](CCC(=O)O)NC(=O)[C@H](CC(C)C)NC(C)=O)C(C)C)[C@@H](C)CC)[C@@H](C)CC)C(=O)N[C@@H](CO)C(=O)N[C@H](C(=O)N[C@@H](Cc1c[nH]c2ccccc12)C(=O)N[C@@H](CO)C(=O)NC(C)(C)C(=O)N[C@@H](CCCNC(=N)N)C(=O)N[C@@H](CCCCN)C(=O)N[C@@H](CCCCNC(C)=O)C(N)=O)[C@@H](C)O)C(=O)O)C(=O)O)C(=O)O [compound 74] (Ac-LEGREKVRAK(Ac)I[Aib]IEGK([Suc-X5])STWS[Aib]RKK(Ac)-NH2)
0.19 nM	97%	8580 µg/mL (≈ 1800 µM)	9560 µg/mL (≈ 2010 µM)	CCCCCCCCCCCCCCCC(=O)N[C@@H](CCC(=O)N[C@@H](CCC(=O)N[C@@H](CCC(=O)NCCCOCCOCCOCCCNC(=O)CCC(=O)NCCCOCCOCCOCCCNC(=O)CCC(=O)NCCCOCCOCCOCCCNC(=O)CCC(=O)NCCCOCCOCCOCCCNC(=O)CCC(=O)NCCCC[C@H](NC(=O)CNC(=O)[C@H](CCC(=O)O)NC(=O)C(C)(C)NC(=O)C(C)(C)NC(=O)[C@@H](NC(=O)[C@H](CCCCNC(C)=O)NC(=O)[C@H](C)NC(=O)[C@H](CCCNC(=N)N)NC(=O)[C@@H](NC(=O)[C@H](CCCNC(=N)N)NC(=O)[C@H](CCC(=O)O)NC(=O)[C@H](CCCNC(=N)N)NC(=O)CNC(=O)[C@H](CCC(=O)O)NC(=O)[C@H](CC(C)C)NC(C)=O)C(C)C)[C@@H](C)CC)C(=O)N[C@@H](CO)C(=O)N[C@H](C(=O)N[C@@H](Cc1c[nH]c2ccccc12)C(=O)N[C@@H](CO)C(=O)NC(C)(C)C(=O)N[C@@H](CCCNC(=N)N)C(=O)N[C@@H](CCCNC(=N)N)C(=O)N[C@@H](CCCCNC(C)=O)C(N)=O)[C@@H](C)O)C(=O)O)C(=O)O)C(=O)O [compound 75] (Ac-LEGRERVRAK(Ac)I[Aib][Aib]EGK([Suc-X5])STWS[Aib]RRK(Ac)-NH2)
